# Laboratory results: patent US20220211662A1, “METHOD OF TREATING CANCER BY ADMINISTERING AN EPIGALLOCATECHIN GALLATE COMBINED WITH TYROSINE KINASE INHIBITOR” (Yunnan Daye Dihong Biotechnology Co., Ltd., priority 2019, published 2022)
# What was measured:
# A431 transplanted tumor = experiment: A431 heterotransplanted tumor model in nude mouse
# NCI-H1666 cells = experiment: MTT cell viability, NCI-H1666 cells; format: cell-based, human; settings: 24 hours
# Text: Detection Principle: MTT method to detect cell viability
# A container is best wrapped with aluminum foil paper.
# Otherwise, it is difficult to reflect the real situation. […] A sample is prevented from being volatilized.
Structure (SMILES),body weight of A431 tumor-bearing mouse (A431 transplanted tumor; compared with control group),growth of NCI-H1666 cells (NCI-H1666 cells; in the presence of EGF),survival rate / growth of NCI-H1666 cells (NCI-H1666 cells; without EGF),"tumor volume growth (A431 transplanted tumor; A431 transplanted tumor, combined use compared with Gefitinib alone treatment group)"
"O=C(O[C@@H]1Cc2c(O)cc(O)cc2O[C@@H]1c1cc(O)c(O)c(O)c1)c1cc(O)c(O)c(O)c1 [EGCG, EPIGALLOCATECHIN GALLATE]",promote the weight increase,,,
COc1cc2ncnc(Nc3ccc(F)c(Cl)c3)c2cc1OCCCN1CCOCC1 [Gefitinib],,does not have a significant inhibitory effect,significant inhibitory effect,better inhibitory effect
